One compound from US12667106B2, “Stabilized mutants of quorum quenching lactonase and use thereof in treatment of pathogens” (priority 2019, dated 2026) can be followed below.

The structures appear in SMILES notation.

In assay [1] the test system is Erwinia amylovora. Type of assay: in vivo. The conditions noted are these: 6 days post inoculation, 4 ppm, growth chamber.
For assay [2], the system named is Erwinia amylovora. Type of assay: in vivo. The conditions noted are these: field, 13 days post inoculation, FIG. 5C.

`CCn1cc(C(=O)O)c(=O)c2cc3c(cc21)OCO3` [oxolinic acid]: in the assay on Erwinia amylovora [1], the “inhibition of flower infection relative to untreated control” value turned out to be 45%. Moreover, in the assay with Erwinia amylovora [2], the “inhibition of fire blight symptoms” value turned out to be 70%.
